Laboratory results taken from patent US9561201B2, “Therapeutic compounds” (Fibrotech Therapeutics Pty Ltd, priority 2006, dated 2017).

Legend:
rat mesangial cell line [1] = assay: TGF-β stimulated 3H-proline incorporation in mesangial cells (Example 5); format: cell-based; details: for inhibition at 10 µM / inhibition at 30 µM / inhibition at 1 µM / inhibition at 3 µM: Rattus norvegicus, Mesangial cell, 5 ng/mL TGF-β1, 44 h, read-out: Mesangial Cell Assay TGF-β % reduction of TGF-β stimulation_proline inc.; for Collagen synthesis: inhibition ranked against tranilast (T) or FT11
Description: (§1) A well-characterized cloned rat mesangial cell line (gift of D Nikolic-Patterson) is cultured in DMEM with FBS, 100 U/mL penicillin, and 100 ug/mL streptomycin in a humidified 5% CO2 atmosphere at 37° C. Cells are plated into 24-well culture dishes in DMEM/10% FBS at low density and allowed to adhere overnight. Cells are used between passages 20 and 40. The subconfluent cells are starved overnight in DMEM/0.1% FBS containing 150 uM L-ascorbic acid, prior to 4 hours of pre-treatment with or without tranilast or the FT compounds, followed by the addition of 5 ng/mL rhTGF-β11 (R&D Systems) and 1 uCi/mL of L-(2,3,4,5-^3H)-proline. Control wells have the compounds but no TGF-β1 added. Cells are incubated for a further 44 hours during which time their appearance is visually monitored. The cells are then washed three times in ice-cold PBS, twice in ice cold 10% TCA and solubilized in 750 uL 1M NaOH for 45 minutes at 37° C. or overnight at 4° C. A 500 uL aliquot is neutralized with 500 uL 1M HCl and 10 mL scintillation fluid (Instagel Plus-Perkin-Elmer) added. Counts are performed on a beta counter.
To normalize the proline incorporation counts to take into account the proliferative effects of TGF-β1, a BioRad protein assay is performed on a 100-150 uL aliquot of the remaining solubilized cells. The sample is neutralized with an equal amount of 1M HCl prior to the assay. The BSA standards used to construct the standard curve have the same amount of 1M NaOH and 1M HCl added as is present in the samples for assay.
Proline incorporation is expressed as cpm/ug protein. In order to compare inter-assay results, the incorporation is expressed as percentage reduction of TGF stimulated proline incorporation, where TGF alone gives 0% reduction and the zero control gives 100% reduction.

rat mesangial cell line [2] = assay: Effect on mesangial cell appearance (visual monitoring during proline assay); format: cell-based
Description: as §1
Compounds in Bold have Minimal Effect on Cell Appearance and Viability

Mesangial cells = assay: Mesangial cell MTT assay with TGF-β; format: cell-based, rat; details: suppressed = reduced cell viability
Description: Mesangial cells are plated at 15000 cells per well into 96-well culture dishes in DMEM/10% FBS and allowed to adhere overnight. The subconfluent cells are starved overnight in DMEM/0.1% FBS, prior to 4 hours of pre-treatment with or without tranilast or the FT compounds. Following the addition of 5 ng/mL rhTGF-β1, the cells are incubated in a humidified 5% CO2 atmosphere at 37° C. for 44 hours. Control wells have the compounds but no TGF-β1 added. The culture medium is removed from each well and 100 uL MTT (0.5 mg/mL) in starve medium is added to each well. The plates are incubated for a further 4 hours at 37° C. The culture medium is then removed and replaced with 100 μL isopropanol and incubated at 37° C. for 20 to 30 minutes, until the blue formazan crystals have dissolved. The absorbance is measured at a wavelength of 570 nm with background subtraction of 690 nm.
Suppressed MTT Result Indicates Reduced Cell Viability

| Effect on mesangial cell appearance (rat mesangial cell line [2]; @ 30 μM) | melting point | Effect on mesangial cell appearance (rat mesangial cell line [2]; @ 10 μM) | Effect on mesangial cell appearance (rat mesangial cell line [2]; no concentration stated) | Structure (SMILES) | inhibition at 10 µM (rat mesangial cell line [1]) | inhibition at 30 µM (rat mesangial cell line [1]) | Collagen synthesis (rat mesangial cell line [1]) | inhibition at 1 µM (rat mesangial cell line [1]) | inhibition at 3 µM (rat mesangial cell line [1]) | Effect on mesangial cell appearance (rat mesangial cell line [2]; @ 100 μM) | Mesangial cell MTT Assay TGF-β (Mesangial cells; @ 30 μM) | Effect on mesangial cell appearance (rat mesangial cell line [2]; @ all concentrations) | Mesangial cell MTT Assay TGF-β (Mesangial cells; @ 10 μM) |
| --- | --- | --- | --- | --- | --- | --- | --- | --- | --- | --- | --- | --- | --- |
| Looking bad | 165 to 166 °C |  |  | CCC#CCCOc1ccc(/C=C/C(=O)Nc2ccccc2C(=O)O)cc1OC [Analogue 39, (E)-2-[[3-(4-(Hex-3-ynyloxy)-3-methoxyphenyl)-1-oxo-2-propenyl]amino]benzoic acid] | ~70% | 100% | >FT11 |  |  |  |  |  |  |
|  | 163 to 165 °C |  |  | CCC#CCCOc1cc(/C=C/C(=O)Nc2ccccc2C(=O)O)ccc1OC [Analogue 40, (E)-2-[[3-(3-(Hex-3-ynyloxy)-4-methoxyphenyl)-1-oxo-2-propenyl]amino]benzoic acid] | ~70% | 100% | >FT11 |  |  | dead |  |  |  |
| lifting off | 185.5 to 186.5 °C |  |  | CCC#CCOc1ccc(/C=C/C(=O)Nc2ccccc2C(=O)O)cc1OC [Analogue 18, (E)-2-[[3-(3-Methoxy-4-(pent-2-ynyloxy)phenyl)-1-oxo-2-propenyl]amino]benzoic acid] | ~70% |  | >>FT11 |  | ~55% |  |  |  |  |
|  | 169 to 170 °C |  |  | CCCCC#CCCOc1ccc(/C=C/C(=O)Nc2ccccc2C(=O)O)cc1OC [Analogue 41, (E)-2-[[3-(3-Methoxy-4-(oct-3-ynyloxy)phenyl)-1-oxo-2-propenyl]amino]benzoic acid] |  |  | Toxic |  |  |  |  | Cells damaged @ |  |
|  | 197 to 198 °C |  |  | C#CCCOc1cc(/C=C/C(=O)Nc2ccccc2C(=O)O)ccc1OC [Analogue 38, (E)-2-[[3-(3-(But-3-ynyloxy)-4-methoxyphenyl)-1-oxo-2-propenyl]amino]benzoic acid] | ~40% | 65% | =FT11 |  |  | Some death |  |  |  |
|  | 154 to 156 °C |  |  | C#CCCCOc1cc(/C=C/C(=O)Nc2ccccc2C(=O)O)ccc1OC [Analogue 36, (E)-2-[[3-(4-Methoxy-3-(pent-4-ynyloxy)phenyl)-1-oxo-2-propenyl]amino]benzoic acid] | ~50% | 80% | =>FT11 |  |  |  | Severely |  |  |
|  | 157 to 158 °C |  |  | CCCCC#CCCOc1cc(/C=C/C(=O)Nc2ccccc2C(=O)O)ccc1OC [Analogue 42, (E)-2-[[3-(4-Methoxy-3-(oct-3-ynyloxy)phenyl)-1-oxo-2-propenyl]amino]benzoic acid] |  |  | Toxic |  |  |  |  | Cells damaged @ |  |
|  | 178 to 180 °C |  |  | C#CCCOc1ccc(/C=C/C(=O)Nc2ccccc2C(=O)O)cc1OC [Analogue 37, (E)-2-[[3-(4-(But-3-ynyloxy)-3-methoxyphenyl)-1-oxo-2-propenyl]amino]benzoic acid] | ~50% | 70% | =FT11 |  |  | Some death |  |  |  |

Continued, compound first:

| Structure (SMILES) | Effect on mesangial cell appearance (rat mesangial cell line [2]; @ 30 μM) | melting point | Effect on mesangial cell appearance (rat mesangial cell line [2]; @ 10 μM) | Effect on mesangial cell appearance (rat mesangial cell line [2]; no concentration stated) | inhibition at 10 µM (rat mesangial cell line [1]) | inhibition at 30 µM (rat mesangial cell line [1]) | Collagen synthesis (rat mesangial cell line [1]) | inhibition at 1 µM (rat mesangial cell line [1]) | inhibition at 3 µM (rat mesangial cell line [1]) | Effect on mesangial cell appearance (rat mesangial cell line [2]; @ 100 μM) | Mesangial cell MTT Assay TGF-β (Mesangial cells; @ 30 μM) | Effect on mesangial cell appearance (rat mesangial cell line [2]; @ all concentrations) | Mesangial cell MTT Assay TGF-β (Mesangial cells; @ 10 μM) |
| --- | --- | --- | --- | --- | --- | --- | --- | --- | --- | --- | --- | --- | --- |
| COc1cc(/C=C/C(=O)Nc2ccccc2C(=O)O)ccc1OC1CCCCC1 [Analogue 27, (E)-2-{[3-(4-Cyclohexyloxy-3-methoxyphenyl)-1-oxo-2-propenyl]amino}benzoic acid] | sick @ 30 μM | 90 to 92 °C | Sparse @ |  | 75 to 90% |  | >FT11 | ~18% | 40% | lifting off | Suppressed |  |  |
| C#CCCCOc1ccc(/C=C/C(=O)Nc2ccccc2C(=O)O)cc1OC [Analogue 35, (E)-2-[[3-(3-Methoxy-4-(pent-4-ynyloxy)phenyl)-1-oxo-2-propenyl]amino]benzoic acid] | Looking bad | 166.5 to 167.5 °C |  |  | 50% | 60 to 100% | =>FT11 |  | ~25% |  |  |  | Suppressed |
| COc1ccc(/C=C/C(=O)Nc2ccc(Br)cc2C(=O)O)cc1OC [Analogue 16, (E)-2-[[3-(3,4-Dimethoxyphenyl)-1-oxo-2-propenyl]amino]-5-bromobenzoic acid] |  | 210 to 213 °C | lifting off |  | ~50% |  | >>FT11 |  | ~20% |  | Suppressed |  |  |
| C#CCCCCOc1cc(/C=C/C(=O)Nc2ccccc2C(=O)O)ccc1OC [Analogue 34, (E)-2-[[3-(3-(Hex-5-ynyloxy)-4-methoxyphenyl)-1-oxo-2-propenyl]amino]benzoic acid] | Looking bad | 135 to 137 °C |  |  | ~80% | 94% | >FT11 |  |  |  | Suppressed |  |  |
| COc1ccc(/C=C/C(=O)Nc2cc3ccccc3cc2C(=O)O)cc1OC [Analogue 8, (E)-3-[[3-(3,4-Dimethoxyphenyl)-1-oxo-2-propenyl]amino]-2-naphthoic acid] |  | 212 to 213 °C |  | Heavily |  |  | Toxic |  |  |  |  |  |  |
| COc1ccc(/C=C/C(=O)Nc2ccccc2C(=O)O)cc1OCc1cn(CC(=O)Nc2ccccc2)nn1 [Analogue 21, (E)-2-[[3-(4-Methoxy-3-((1-(2-oxo-2-(phenylamino)ethyl)-1H-1,2,3-triazol-4-yl)methoxy)phenyl)-1-oxo-2-propenyl]amino]benzoic acid] |  |  |  |  | ~20% | ~65% | =FT11 |  |  | necrotic | Suppressed |  |  |
| C#CCCCCOc1ccc(/C=C/C(=O)Nc2ccccc2C(=O)O)cc1OC [Analogue 33, (E)-2-[[3-(4-(Hex-5-ynyloxy)-3-methoxyphenyl)-1-oxo-2-propenyl]amino]benzoic acid] | Looking bad | 148 to 150 °C |  |  | 60% | 80% | >FT11 | ~15% | 40% |  |  |  | Severely |
| COc1cc(/C=C/C(=O)Nc2ccccc2C(=O)O)ccc1OCC1CCCCC1 [Analogue 28, (E)-2-{[3-(4-Cyclohexylmethoxy-3-methoxyphenyl)-1-oxo-2-propenyl]amino}benzoic acid] | Stressed @ | 207 to 210 °C |  |  | ~40% | 173% | <FT11 |  |  | Dead @ |  |  | deadly ® |
| O=C(/C=C/c1ccc(O)c(O)c1)Nc1ccccc1C(=O)O [Analogue 5, (E)-2-[[3-(3,4-Dihydroxyphenyl)-1-oxo-2-propenyl]amino]benzoic acid] |  | 204 to 206 °C |  | Cells looking |  |  | May be toxic |  |  |  |  |  |  |
